Test results published in patent publication US6482850B2, “Hydrolysis-promoting hydrophobic taxane derivatives” (priority 1995, dated 2002).

Columns and labels:
[1] = test system: A-549 human lung carcinoma; test: In vitro sensitivity, sulforhodamine B cytotoxicity assay, A-549 (Table 2); assay type: cell-based; settings: Homo sapiens, A549; 72-hour incubation; averaged from two separate experiments
Procedure: Briefly, 96-well microtiter plates were inoculated (100 μL/well) with 5×10^3 (A549) or 7.5×10^3 (OVCAR-3) cells/well, in RPMI-1640 supplemented with 10% FBS (growth media). The plates were incubated for 24 hr at 37° C., 100% humidity and 5% CO2. At 24 hours, growth media (100 μL) was added to designated “time zero” plates. Similarly, serial dilutions of drug or vehicle (in media) were added (100 μL aliquots) to the test and vehicle control wells at twice the predetermined highest concentration. […] Cells (including time zero plates) were then fixed with 50 μL of 50% trichloroacetic acid (TCA) (w:v) for adherent cells or 80% TCA for suspended cells, and plates refrigerated at 4° C. for 1 hr. […] The plates were then air-dried for 24 hr.

[2] = test system: MCF-7 human breast carcinoma; test: In vitro sensitivity, sulforhodamine B cytotoxicity assay, MCF-7 (Table 2); assay type: cell-based; settings: Homo sapiens, MCF7; 72-hour incubation; averaged from two separate experiments
[3] = test system: MCF-7/ADR (adriamycin-resistant); test: In vitro sensitivity, sulforhodamine B cytotoxicity assay, MCF-7/ADR (Table 2); assay type: cell-based, human; settings: Homo sapiens, NCI/ADR-RES; 72-hour incubation; averaged from two separate experiments
[4] = test system: HT-29 human colon carcinoma cells; test: In vitro sensitivity, sulforhodamine B cytotoxicity assay, HT-29 (Table 2); assay type: cell-based; settings: Homo sapiens, HT-29; 72-hour incubation; averaged from two separate experiments
CDF1 female mice = test: Acute toxicity of liposomal paclitaxel or paclitaxel derivative given intraperitoneally; settings: liposomes, i.p.
Procedure: Moreover, liposomes containing either paclitaxel or a 2′-(2-bromo) hydrophobic paclitaxel derivative (containing either a six-carbon (C-6), C-8, C-12, C-14 or C-16 acyl chain at the 2′ position) were administered, intraperitoneally in 5 doses, to SCID (severe combined inimunodeficiency) mice bearing a human ovarian cancer (OvCar 3), at a dose of 12.5 mg paclitaxel per kg or a dose of 50 mg paclitaxel derivative per kg.
CDF1 female mice, 5 or 10 mice per group, were intraperitoneally administered either paclitaxel-, 2′-C6-paclitaxel derivative-, or 2′-C16-paclitaxel derivative-containing liposomes, in a single dose, or 5 doses, of either 12.5, 25, 50, 100, 200, 300. 400 or 500 mg of paclitaxel or paclitaxel derivative per kg of mouse body weight.

[5] = In vivo toxicity, i.p. x 5, non-tumor bearing mice; settings: CDF1, mouse, in vivo, ip; i.p. once daily for five consecutive days; read-out: maximum tolerated i.p. dose (MTD, highest dose with no deaths)
Procedure: (§1) A separate group (n=5) was injected with concentrations of Cremophor® EL and ethanol (in PBS) equivalent to the highest concentration of the test treatment. Mortality was recorded daily and body weights taken at least twice weekly for an observation period of 30 days.

CDF1 mice [6] = test: In vivo toxicity, i.p. x 5, non-tumor bearing mice; settings: 30 days observation
Procedure: as §1

CDF1 mice [7] = test: In vivo toxicity, i.v. x 5, non-tumor bearing mice; settings: 30 days observation
Procedure: as §1

[8] = test system: OVCAR-3 human ovarian cancer; test: i.p. OVCAR-3 tumor, i.v. treatment, survival (FIG. 6); assay type: in vivo, mice
Procedure: Mice were observed daily for mortality and % ILS was calculated as described above.

[9] = test system: OVCAR-3 human ovarian cancer; test: s.c. OVCAR-3 tumor, i.v. treatment, tumor volume (FIG. 7); assay type: in vivo, mice
Procedure: OVCAR-3 human ovarian cancer.
The tumor volume (mm^3) from tumor measurement was calculated: (Length * (Width/2)^2 * π). Mice were sacrificed when the average tumor volume of the group reached 1500 mm^3.

A549 human lung cancer = test: s.c. A549 tumor, i.v. treatment, tumor volume (FIG. 8); assay type: in vivo, mice; settings: i.v., independent of the dose schedule; BrC16HT 12.5-25 mg/kg, Taxol® 25 mg/kg
From the text: Mice were sacrificed when the average tumor volume of the group reached 1500 mm^3.

[10] = High sensitivity differential scanning calorimetry on phosphocholine bilayers; assay type: physicochemical; settings: DMPC, DPPC and DSPC bilayers, as high as 9.1 mol % (Lipid/Drug, 10:1)
From the text: High sensitivity differential scanning calorimetry (DSC) was used to examine the effect of addition of taxol and its acylated derivatives on the thermotropic phase properties of phosphocholine bilayers of saturated 1, 2-dimyristoyl-sn-glycero-3-phosphocholines (DMPC), 1,2-dipalmitoyl-sn-glycero-3-phosphocholines (DPPC), and 1,2-distearoyl-sn-glycero-3-phosphocholines (DSPC). Likewise, three acylated taxol prodrugs were varied in chain lengths from six, twelve, to sixteen carbons.

A549 cancer cells = test: cells; settings: Homo sapiens, A549, 72 h, read-out: GI50 ± S.D. A549
Procedure: Briefly, 96-well microtiter plates were inoculated (100 μL/well) with 5×10^3 (A549) or 7.5×10^3 (OVCAR-3) cells/well, in RPMI-1640 supplemented with 10% FBS (growth media). The plates were incubated for 24 hr at 37° C., 100% humidity and 5% CO2. At 24 hours, growth media (100 μL) was added to designated “time zero” plates. Similarly, serial dilutions of drug or vehicle (in media) were added (100 μL aliquots) to the test and vehicle control wells at twice the predetermined highest concentration. There were triplicate wells on each plate and duplicate plates (total 6 wells) for each drug concentration. The test plates were incubated as above for 72 hr. Cells (including time zero plates) were then fixed with 50 μL of 50% trichloroacetic acid (TCA) (w:v) for adherent cells or 80% TCA for suspended cells, and plates refrigerated at 4° C. for 1 hr. The supernatant was discarded (suspended cell plates were first centrifuged) and the wells rinsed six times with tap water and air-dried. One hundred microliters of 0.4% SRB in 1% acetic acid were added to each well and the plates were incubated under ambient (RT) conditions for 10 min. Unbound stain was removed by rinsing the wells three times with 1% acetic acid. The plates were then air-dried for 24 hr. The bound stain was solubilized with 100 μL of 10 mM Tris buffer and the optical density was read spectrophotometrically at 490 nm (Microplate Reader Model 3550-UV, Bio-Rad, Hercules, Calif.). Percent growth was calculated as follows: (T-T0) / (C-T0)×100; where (T)=mean optical density of treated wells at a given drug concentration, (T0)=mean optical density of time zero wells, and (C)=mean optical density of control wells.

OVCAR-3 cancer cells = test: cells; settings: Homo sapiens, OVCAR-3, 72 h, read-out: GI50 ± S.D. OVCAR-3
Procedure: Briefly, 96-well microtiter plates were inoculated (100 μL/well) with 5×10^3 (A549) or 7.5×10^3 (OVCAR-3) cells/well, in RPMI-1640 supplemented with 10% FBS (growth media). The plates were incubated for 24 hr at 37° C., 100% humidity and 5% CO2. At 24 hours, growth media (100 μL) was added to designated “time zero” plates. Similarly, serial dilutions of drug or vehicle (in media) were added (100 μL aliquots) to the test and vehicle control wells at twice the predetermined highest concentration. There were triplicate wells on each plate and duplicate plates (total 6 wells) for each drug concentration. The test plates were incubated as above for 72 hr. Cells (including time zero plates) were then fixed with 50 μL of 50% trichloroacetic acid (TCA) (w:v) for adherent cells or 80% TCA for suspended cells, and plates refrigerated at 4° C. for 1 hr. […] The bound stain was solubilized with 100 μL of 10 mM Tris buffer and the optical density was read spectrophotometrically at 490 nm (Microplate Reader Model 3550-UV, Bio-Rad, Hercules, Calif.). Percent growth was calculated as follows: (T-T0) / (C-T0)×100; where (T)=mean optical density of treated wells at a given drug concentration, (T0)=mean optical density of time zero wells, and (C)=mean optical density of control wells.

in vivo = settings: female, CDF1, mouse, plasma, intravenous, 25 mg/kg
Procedure: (§2) Control mice received an equivalent concentration of Cremophor® EL and ethanol (in PBS) only. At 1, 4, 8, 24 or 48 hr after injection mice were sacrificed and blood was collected via heart puncture into 1 cc syringes containing 0.05 mL of a 0.129M Sodium citrate solution (Baxter, N.J.). Samples were centrifuged at 10,000 ×g for 3 min and plasma removed. Extraction of test materials from plasma was done by adding an equal volume of acetonitrile containing 2C12-HT, 50 μg/ml, as an internal standard, and vortexing vigorously for 30 sec. Samples were then centrifuged for 3 min at 10,000 ×g and supernatant and drug levels determined via HPLC as described previously.

A549 human NSCLC = test: i.p. A549 tumor, i.p. treatment, survival; settings: i.p. on days 1, 3, 5, 7 & 9
Procedure: Note that long-term survivors (mice that survived through day 300 after cell inoculation) were not included in mean, median, or % ILS calculations.
SCID mice (6/group) were injected with 5×10^6 A549 human NSCLC cells i.p. (day 0).

[11] = test system: OVCAR-3 human ovarian cancer; test: i.p. OVCAR-3 tumor, i.p. treatment, survival
Procedure: C.B-17 SCID female mice were injected i.p. with 5×10^6 OVCAR-3 human ovarian cancer cells (day 0). […] Note that long-term survivors (mice that survived through day 300 after cell inoculation) were not included in mean, median, or % ILS calculations.

[12] = Pharmacokinetic, plasma levels after i.v. administration; settings: 25 mg/kg i.v., CDF1 female mice, 8 hours
Procedure: as §2

[13] = treated days 20, 22, 24, 26 and 28 i.p., 25 mg/kg
[14] = treated days 20, 22, 24, 26 and 28 i.p., 25 mg/kg, long-term survivors not included

CC(=O)O[C@H]1C(=O)[C@@]2(C)[C@H]([C@H](OC(=O)c3ccccc3)[C@]3(O)C[C@H](OC(=O)[C@H](O)[C@@H](NC(=O)c4ccccc4)c4ccccc4)C(C)=C1C3(C)C)[C@]1(OC(C)=O)CO[C@@H]1C[C@@H]2O [Paclitaxel, reference compound]
GI50 [1]: 2.3 nM | GI50 [2]: < 1.5 nM | GI50 [3]: 4170 nM | GI50 [4]: < 1.4 nM | number of mice that died within the first 14 days post-injection/total (CDF1 female mice; five doses of 12.5 mg/kg): 0/10 | number of mice that died within the first 14 days post-injection/total (CDF1 female mice; five doses of 25 mg/kg): 10/10 | number of mice that died within the first 14 days post-injection/total (CDF1 female mice; five doses of 50 mg/kg): 10/10 | number of mice that died within the first 14 days post-injection/total (CDF1 female mice; single dose 12.5 mg/kg): 0/10 | number of mice that died within the first 14 days post-injection/total (CDF1 female mice; single dose 25 mg/kg): 0/10 | number of mice that died within the first 14 days post-injection/total (CDF1 female mice; single dose 50 mg/kg): 0/10 | number of mice that died within the first 14 days post-injection/total (CDF1 female mice; single dose 100 mg/kg, 100 mg/kg): 5/5 | number of mice that died within the first 14 days post-injection/total (CDF1 female mice; single dose 100 mg/kg, listed as paclitaxel, 100 mg/kg): all five of the mice | MTD at 5 days [5]: 12.5 to 25 mg/kg | Number of Mice surviving/Total (CDF1 mice [6]; i.p. days 1 through 5, 12.5 mg/kg): 20/20 | Number of Mice surviving/Total (CDF1 mice [6]; i.p. days 1 through 5, 25 mg/kg): 10/20 | Number of Mice surviving/Total (CDF1 mice [6]; i.p. days 1 through 5, 37.5 mg/kg): 0/10 | Number of Mice surviving/Total (CDF1 mice [6]; i.p. days 1 through 5, 50 mg/kg): 0/25 | Number of Mice surviving/Total (CDF1 mice [7]; i.v. days 1 through 5, 12.5 mg/kg): 10/10 | Number of Mice surviving/Total (CDF1 mice [7]; i.v. days 1 through 5, 25 mg/kg): 8/10 | Number of Mice surviving/Total (CDF1 mice [7]; i.v. days 1 through 5, 37.5 mg/kg): 0/7 | Number of Mice surviving/Total (CDF1 mice [7]; i.v. days 1 through 5, 50 mg/kg): 0/8 | medium survival times ([8]; 12.5 mg/kg i.v. on days 20, 22, 24, 26 & 28): 170 days | survival time vs. control ([8]; 12.5 or 25 mg/kg i.v. on days 1, 3, 5, 7, 9, 42, 44, 46, 48 & 50 (FIG. 6a)): significantly (p<0.05 vs. control) increased the survival time | survival time vs. control ([8]; i.v. on days 20, 22, 24, 26 & 28, BrC16HT 12.5 or 25 mg/kg, Taxol® 12.5 mg/kg (FIG. 6b)): significantly (p<0.05 vs. control) increased the survival time | delaying tumor growth ([9]; 25 mg/kg i.v. on days 1, 3, 5, 7 & 9): ~59 days | tumor growth vs. control ([9]; i.v. on days 1, 3, 5, 7 & 9, BrC16HT 12.5-25 mg/kg, Taxol® 25 mg/kg): significantly (p<0.05 vs. control) inhibited the tumor growth | tumor growth vs. control (A549 human lung cancer): significantly (p <0.05 vs. control) inhibited the tumor growth | perturbation of PC bilayers (DSC) [10]: little or no effect on the perturbation of all three PC bilayers | GI50 (A549 cancer cells): 3.3 ± 0.8 nM | GI50 (OVCAR-3 cancer cells): 1.9 ± 0.03 nM | concentration at 1 h (in vivo): 14400 ± 4600 ng/mL | concentration at 4 h (in vivo): < 5000 ng/mL | survival time of tumor-bearing mice vs. control (A549 human NSCLC): significantly (p<0.05 vs. control) increased the survival time | long-term survivors (LTS), in words ([11]; delayed i.p. schedule (Table 9b)): no long-term survivors were observed | survival of tumor-bearing mice vs. control ([11]; early (days 1, 3, 5, 7 & 9) and delayed (days 20, 22, 24, 26 & 28) i.p. treatment schedules): significantly prolonged (p<0.05 vs. control) the survival | % ILS [11, 13]: 84% | LTS/n (mice that survived to 300 days) [11, 13]: 0/10 | MST Days ± SEM (n) [11, 14]: 188 ± 15 (10) Days | Median survival time [11, 14]: 185 days | Plasma level of paclitaxel ± SEM [12]: none detectable
